IC50 data for nine compounds are collected here from US20260176289A1, “SMALL MOLECULE INHIBITORS OF KRAS PROTEINS” (Merck Sharp & Dohme LLC, priority 2022, published 2026).

Like-named read-outs stand apart in the source and are kept apart here.

In general, IC50 refers to the point on the concentration scale where inhibition reaches its midpoint.

For one test, the system named is AsPC-1 cells. Kind of test: Cellular phospho-ERK assay, AsPC-1 cells (homozygous KRAS-G12D). The class given is cell-based. The conditions noted are these: Homo sapiens, ASPC1, 2 h, read-out: AsPC1 pERK IC50. Summed up: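 ERK phosphorylation relative to total ERK is the endpoint, detected by AlphaScreen-based SureFire multiplex following a 2-hour treatment at 37 °C. Compounds are titrated 1:3 over ten points from 30 μM.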

The next test has as its system MKN-1 cells. Kind of test: Cellular phospho-ERK assay, MKN-1 cells (amplified wild-type KRAS). The conditions noted are these: Homo sapiens, read-out: MKN1 pERK IC50. The class given is cell-based. As for the experimental part:
(§1) Procedure for Cellular Phospho-ERK Assay in KRAS Wild Type and Mutant (G12D, G12V) Cell Lines
(§2) MKN-1 cells (JCRB JCRB0252) containing amplified wild-type KRAS, were cultured in growth medium that contains RPMI 1640-GlutaMAX™-I (ThermoFisher Scientific 61870) containing 10% heat inactivated fetal bovine serum (ThermoFisher Scientific 10091148), 1 mM sodium pyruvate and 10 mM HEPES. PANC08.13 cells (ATCC® CRL-2551™), containing homozygous KRAS-G12D activating mutation, were cultured in growth medium made of RPMI1640-GlutaMAX™-I (ThermoFisher Scientific 61870) containing 15% heat inactivated fetal bovine serum (ThermoFisher Scientific 10091148)). AsPC-1 cells (ATCC® CRL-1682™), containing homozygous KRAS-G12D activating mutation, were cultured in T150 flask in growth medium (RPMI medium 1640-GlutaMAX™-I (ThermoFisher Scientific 61870) containing 10% fetal bovine serum (ThermoFisher Scientific 10091148)). SW620 cells (ATCC® […]), containing homozygous KRAS-G12V activating mutation, were cultured in growth medium that contains RPMI 1640-GlutaMAX™-I (ThermoFisher Scientific 61870) containing 10% heat inactivated fetal bovine serum (ThermoFisher Scientific 10091148).
(§3) Cells for the assay were harvested in growth medium after TrypLE (ThermoFisher scientific 12604021) digestion and were seeded in a 384-well collagen coated cell culture plate (Corning 356702) at a density of 10,000-15,000 cells/20 μL/well, and incubated at 37° C., 5% CO2 overnight. The compound (with 10 mM stock concentration) dose-response titrations were prepared [30 μM final ERK detection assay concentration and 1:3 dilutions, 10-point dose response] and appropriate amounts (270 nL) of test compounds were dispensed in a 384-well intermediate plate using an Echo 550 liquid handler. 30 μL/well of RPMI medium 1640-GlutaMAX™—I was added to the intermediate plate and the contents of the intermediate plate (10 μL/well) were then transferred to the 384-well collagen coated cell culture plate, which was incubated at 37° C., 5% CO2 for 2 hours. After removal of medium from the collagen coated cell culture plate, cells were lysed in lysis buffer from Alpha SureFire® Ultra™ Multiplex p-ERK and total ERK assay kit (PerkinElmer MPSU-PTERK) containing Halt™ Protease and Phosphatase inhibitor cocktail (ThermoFisher Scientific 78446) at room temperature with constant shaking at 300 rpm for 30 minutes. The cell lysates were then transferred to an OptiPlate-384 plate (PerkinElmer 6005620), and the phosphorylation of ERK (p-ERK) and total ERK levels were detected by Alpha SureFire® Ultra™ Multiplex p-EEK kit and total ERK assay kit (PerkinElmer MPSU-PTERK) following the manufacturer's protocol. Assay plates were read on a En Vision Multimode Plate Reader (PerkinElmer), and the ratio of p-ERK vs. total ERK in each well was used as the final readout. Dose response curves were analyzed using a 4-parameter logistic model to calculate IC50 values using Spotfire software.

The next test has as its target KRAS-G12V (Homo sapiens, UniProt P01116, G12V). Kind of test: SOS-catalyzed nucleotide exchange assay (Procedure A, TR-FRET), KRAS-G12V. Type of test: biochemical. The note with it: nucleotide exchange, read-out: KRAS G12V GNE IC50. The essentials:
(§4)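 Compounds (10-point, 3-fold) were preincubated 60 min at room temperature with a biotinylated RAS/Bodipy-GDP/Tb-streptavidin TR-FRET complex. Exchange was started with human SOS plus 3 mM GTP. RAS/SOS: G12C 3/40 nM, WT 1/40 nM, NRAS 1.25/40 nM (60 min); G12V 1.25/160 nM (90 min). The 520/495 ratio was fit four-parameter.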

The target in the next test is KRAS-WT (Homo sapiens, UniProt P01116). Kind of test: SOS-catalyzed nucleotide exchange assay (Procedure A, TR-FRET), KRAS-WT. Type of test: biochemical. The note with it: nucleotide exchange, read-out: KRAS WT GNE IC50. The essentials:
as §4

Another test has as its target KRAS-G12D (Homo sapiens, UniProt P01116, G12D). Kind of test: SOS-catalyzed nucleotide exchange assay (Procedure A, TR-FRET), KRAS-G12D. The class given is biochemical. The note with it: nucleotide exchange, read-out: KRAS G12D GNE IC50. The essentials:
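Signal ratio (520/495 nm, excitation 340 nm) reports Bodipy-GDP retention on biotinylated RAS after SOS-catalyzed exchange with 3 mM GTP. SOS was 40 nM, except 160 nM for G12V. Room-temperature exchange lasted 60 min (90 min for G12V), following a 60 min compound preincubation.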
For orientation: Time-resolved FRET reads energy transfer from a long-lived donor to a nearby acceptor.

For a further test, the system named is SW620 cells. As to the kind of experiment: Cellular phospho-ERK assay, SW620 cells (homozygous KRAS-G12V). The conditions noted are these: Homo sapiens, read-out: SW620 pERK IC50. Type of test: cell-based. As for the experimental part: as §1, §2, §3
[1] abbreviates: amplified wild-type KRAS, 2 hours.
Setting [2] is: SW-620, 2 hours compound incubation.

KRAS-WT, sequence (P01116 with tags, fused parts or gaps isoform P01116-2): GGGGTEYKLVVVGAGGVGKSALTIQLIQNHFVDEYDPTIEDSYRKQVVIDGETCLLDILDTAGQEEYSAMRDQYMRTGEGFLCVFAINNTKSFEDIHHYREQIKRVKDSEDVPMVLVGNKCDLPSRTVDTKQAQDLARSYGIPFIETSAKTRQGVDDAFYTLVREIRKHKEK
KRAS-G12D, sequence (P01116 with tags, fused parts or gaps isoform P01116-2 G12D): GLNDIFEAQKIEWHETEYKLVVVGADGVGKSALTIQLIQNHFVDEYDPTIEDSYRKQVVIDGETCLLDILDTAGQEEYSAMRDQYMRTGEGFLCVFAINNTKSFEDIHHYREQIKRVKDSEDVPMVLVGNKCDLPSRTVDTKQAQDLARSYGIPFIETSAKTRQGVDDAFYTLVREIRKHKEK
KRAS-G12V, sequence (P01116 with tags, fused parts or gaps isoform P01116-2 G12V): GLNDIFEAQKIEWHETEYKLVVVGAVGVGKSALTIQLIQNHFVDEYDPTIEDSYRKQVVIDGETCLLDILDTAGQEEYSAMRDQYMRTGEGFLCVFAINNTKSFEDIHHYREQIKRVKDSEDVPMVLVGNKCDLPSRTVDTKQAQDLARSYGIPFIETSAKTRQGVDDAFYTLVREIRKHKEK

For the compound `C=C1CCCc2cc3[nH]ncc3c(-c3nccc4c3sc3nc(OC[C@@]56CCCN5C[C@H](F)C6)nc(N5CCOC[C@@](C)(O)C5)c34)c21` [Ex-115, (6S)-4-(2-(((2R,7aS)-2-fluorotetrahydro-1H-pyrrolizin-7a(5H)-yl)methoxy)-8-(5-methylene-5,6,7,8-tetrahydro-1H-benzo[f]indazol-4-yl)pyrido[4′,3′:4,5]thieno [2,3-d]pyrimidin-4-yl)-6-methyl-1,4-oxazepan-6-ol], the concentration for half-maximal inhibition (IC50) with AsPC-1 cells (KRAS-G12D, 2 hours) came out at 46.6 nM; in the test on MKN-1 cells (setting [1]) it was 24.6 nM; at KRAS-G12V it was 13.2 nM; at KRAS-WT, 10.8 nM; at KRAS-G12D, 3.98 nM; in the test with SW620 cells (SW-620, KRAS-G12V, 2 hours), 18.9 nM.

On to `Cc1cc2[nH]ncc2c(-c2nccc3c2sc2nc(OC[C@@]45CCCN4C[C@H](F)C5)nc(N4CCOC[C@@](C)(O)C4)c23)c1C1(F)CC1` [Ex-54, (6S)-4-(8-(5-(1-fluorocyclopropyl)-6-methyl-1H-indazol-4-yl)-2-(((2R,7aS)-2-fluorotetrahydro-1H-pyrrolizin-7a(5H)-yl)methoxy)pyrido[4′,3′:4,5]thi-eno[2,3-d)pyrimidin-4-yl)-6-methyl-1,4-oxazepan-6-ol], for which the half-inhibitory concentration (IC50) with AsPC-1 cells (KRAS-G12D, 2 hours) came out at 84.6 nM; in the test with MKN-1 cells (setting [1]), 56.5 nM; on KRAS-G12V, 11.1 nM; at KRAS-WT it was 10.8 nM; on KRAS-G12D, 5.06 nM; with SW620 cells (SW-620, KRAS-G12V, 2 hours), 186 nM.

As to `C[C@@]1(O)COCCN(c2nc(OC[C@@]34C[C@H](F)CN3CC3(CC3)C4)nc3sc4c(-c5c(C6CC6)c(Cl)cc6[nH]ncc56)nccc4c23)C1` [Ex-219, (6S)-4-(8-(6-chloro-5-cyclopropyl-1H-indazol-fluoro-dihydro-1H,3′H-spiro[cyclopropane-1,2′-yl)methoxy)-pyrido[4′,3′:4,5]thieno[2,3-d]pyr-imidin-4-yl)-6-methyl-1,4-oxaze-pan-6-ol], the IC50 in the test with AsPC-1 cells (2 hours compound incubation) was 305 nM; with MKN-1 cells (2 hours compound incubation), 318 nM; at KRAS-G12V it was 196 nM; on KRAS-WT it was 255 nM; at KRAS-G12D, 82.7 nM; in the test with SW620 cells (setting [2]), 230 nM.

Regarding `CCc1csc2cc3[nH]ncc3c(-c3nccc4c3sc3nc(OC[C@@]56CCCN5C[C@H](F)C6)nc(N5CCOC[C@@](C)(O)C5)c34)c12` [Ex-168, (6S)-4-(8-(5-ethyl-1H-thieno[3,2-f]indazol-4-yl)-2-(((2R,7aS)-2-fluorotetrahydro-1H-pyrrolizin-7a(5H)-yl)methoxy)pyrido [4′,3′:4,5]thieno[2,3-d]pyrimidin-4-yl)-6-methyl-1,4-oxazepan-6-ol], the IC50 with AsPC-1 cells (2 hours compound incubation) worked out at 31.4 nM; with MKN-1 cells (2 hours compound incubation), 25.8 nM; at KRAS-G12V, 5.49 nM; on KRAS-WT, 7.25 nM; at KRAS-G12D, 3.17 nM; with SW620 cells (setting [2]), 13 nM.

Turning to `C[C@@]1(O)COCCN(c2nc(OC[C@]3(CN4CCC5(CC5)C4)CC3(F)F)nc3sc4c(-c5c(C6(F)CC6)c(Cl)cc6[nH]ncc56)nccc4c23)C1` [Ex-262, (6S)-4-(2-(((R)-1-((5-azaspiro[2.4]heptan-5-yl)methyl)-2,2-difluorocyclopropyl)methoxy)-8-(6-chloro-5-(1-fluorocyclopropyl)-1H-indazol-4-yl)pyrido[4′,3′:4,5]thieno[2,3-d]pyrimidin-4-yl)-6-methyl-1,4-oxazepan-6-ol], the IC50 in the test with AsPC-1 cells (2 hours compound incubation) was 119 nM; in the test on MKN-1 cells (2 hours compound incubation), 52.4 nM; on KRAS-G12V it was 26.7 nM; on KRAS-WT, 22.2 nM; on KRAS-G12D it was 4.44 nM; with SW620 cells (setting [2]), 66.1 nM.

Take `C[C@@]1(O)COCCN(c2nc(OC[C@@]34CCCN3CC(=C(F)F)C4)nc3sc4c(-c5c(C6(F)CC6)c(Cl)cc6[nH]ncc56)nccc4c23)C1` [Ex-272, (6S)-4-(8-(6-chloro-5-(1-fluorocyclopropyl)-1H-indazol-4-yl)-2-(((S)-2-(difluoromethylene)tetra-hydro-1H-pyrrolizin-7a(5H)-yl)methoxy)pyri-do[4′,3′:4,5]thi-eno[2,3-d]pyrimidin-4-yl)-6-methyl-1,4-oxazepan-6-ol]: the 50% inhibitory concentration (IC50) was 62.4 nM in the test with AsPC-1 cells (KRAS-G12D, 2 hours); 50.5 nM in the test on MKN-1 cells (setting [1]); 19.4 nM on KRAS-G12V; 29.3 nM at KRAS-WT; 3.18 nM on KRAS-G12D; 29.4 nM with SW620 cells (SW-620, KRAS-G12V, 2 hours).

`CN1CCC[C@@]2(COc3nc(N4CCOC[C@@](C)(O)C4)c4c(n3)sc3c(-c5c(C6CC6)c(Cl)cc6[nH]ncc56)nccc34)CCC[C@@H]12` [Ex-217, (6S)-4-(8-(6-chloro-5-cyclopropyl-1H-indazol-4-yl)-2-(((4aS,7aR)-1-meth-yloctahydro-4aH-cyclopenta[b]pyridin-4a-yl)meth-oxy)pyrido[4′,3′:4,5]thieno[2,3-d]pyrimi-din-4-yl)-6-methyl-1,4-oxazepan-6-ol]: the IC50 in the test on AsPC-1 cells (2 hours compound incubation) worked out at 47.7 nM; in the test on MKN-1 cells (2 hours compound incubation), 46.9 nM; at KRAS-G12V it was 13.1 nM; at KRAS-WT, 8.85 nM; at KRAS-G12D, 3.46 nM; with SW620 cells (setting [2]), 10.9 nM.

Turning to `Cc1cc2[nH]ncc2c(-c2nccc3c2sc2nc(OC[C@@]45CCCN4C[C@H](F)C5)nc(N4CCOC[C@@](C)(O)C4)c23)c1C1CC1(F)F` (stereo partly drawn) [Ex-63, (6S)-4-(8-(5-(2,2-difluorocyclopropyl)-6-methyl-1H-indazol-4-yl)-2-(((2R,7aS)-2-fluorotetrahydro-1H-pyrrolizin-7a(5H)-yl)methoxy)pyrido[4′,3′:4,5]thi-eno[2,3-d]pyrimidin-4-yl)-6-methyl-1,4-oxazepan-6-ol], the IC50 in the test with AsPC-1 cells (KRAS-G12D, 2 hours) came to 185 nM; with MKN-1 cells (setting [1]), 114 nM; on KRAS-G12V, 39.3 nM; at KRAS-WT, 55.2 nM; at KRAS-G12D, 19.6 nM; with SW620 cells (SW-620, KRAS-G12V, 2 hours), 121 nM.

With `C[C@@]1(O)COCCN(c2nc(OC[C@]3(CN4CC5(COC5)C4)CC3(F)F)nc3sc4c(-c5c(C6CC6)c(Cl)cc6[nH]ncc56)nccc4c23)C1` [Ex-213, (6S)-4-(2-(((R)-1-((2-oxa-6-azaspiro [3.3]heptan-6-yl)-methyl)-2,2-difluoro-cyclopropyl)meth-oxy)-8-(6-chloro-5-cyclopropyl-1H-indazol-4-yl)pyrido [4′,3′:4,5]thieno [2,3-d]pyrimidin-4-yl)-6-methyl-1,4-oxazepan-6-ol], the IC50 in the test with AsPC-1 cells (2 hours compound incubation) amounted to 48.3 nM; in the test on MKN-1 cells (2 hours compound incubation) it was 66.4 nM; on KRAS-G12V it was 11.2 nM; on KRAS-WT, 12.2 nM; at KRAS-G12D it was 3.5 nM; with SW620 cells (setting [2]), 42.9 nM.
